Results as given in paper PMC12695667 (Nature, 2025).
Values joined by “and” are separate entries in the source; they are usually repeats but may differ in a detail not shown here. Identical values can stand only once.

What was measured:
[1] = tested on: C57BL/6J mouse dorsal skin; format: in vivo, C57BL/6J mice
Excerpt: The dorsal skin of male C57BL/6J mice was exposed using depilatory cream and cleaned using PBS. A diffusing cell of 1.13 cm^2 was attached onto the dorsal skin. […] After timed topical administration, the mice were euthanized. The treated skin sites were washed and dissected. The entire skin samples were carefully washed three times with PBS, fixed with 4% paraformaldehyde (PFA) solution and sectioned into 10-μm-thick slices using a cryostat (UV800, Leica Microsystems). 4′,6-Diamidino-2′-phenylindole (DAPI) was used to stain and label the nuclei of skin tissues, and BODIPY was used to stain and localize subcutaneous fat deposits. […] The CLSM images were analysed using ImageJ.

[2] = biological target: insulin receptor extracellular domains, His-tagged; assay: SPR; Biacore X100, CM5 chip; anti-His antibody immobilised, His-tag-ECD-IR captured on it; insulin (9.75-156 nM) or OP-I (4.06-65.0 nM) injected in HEPES running buffer pH 7.4, single-cycle kinetics, 180 s binding and 300 s dissociation, flow 30 ul/min
[3] = tested on: STZ-induced type 1 diabetic mice; assay: Blood glucose levels in STZ-induced diabetic mice; format: in vivo, C57BL/6J mice; conditions: for Effect on BGLs, topical: topical 116 U kg^−1, 1.13 cm^2 dorsal skin
Protocol: Type 1 diabetic mice were established through intraperitoneal delivery of STZ (150 mg per kg in 10 mg ml^−1 disodium citrate buffer, pH 4.5) into healthy male C57BL/6J mice (aged 6–8 weeks, ~25 g). BGLs were monitored, and the mice with BGLs exceeding 300 mg dl^−1 were considered diabetic. Diabetic mice with fasting BGLs within the 300 to 600 mg dl^−1 range were selected for the experiments. BGLs were measured from tail-vein blood (around 3 μl) using a calibrated Sinocare glucose meter.
BGLs were measured at timed intervals. […] The diabetic mice were subjected to a fasting period of 12 h during the experimental procedures.

[4] = tested on: STZ-induced diabetic mice; assay: Intraperitoneal glucose tolerance test (IPGTT) in diabetic mice; format: in vivo, C57BL/6J mice; design: Area under the IPGTT blood glucose curve: unit not given here; conditions: for Area under the IPGTT blood glucose curve: Fig. 3h, 0-120 min; for BGL after intraperitoneal glucose administration (IPGTT): diabetic mice, topical 116 U kg^−1, glucose 1.5 g per kg i.p., hyperglycaemic state maintained
Protocol: BGLs were monitored over time. The diabetic mice were subjected to a fasting period of 3 h during the experimental procedures.

[5] = tested on: STZ-induced diabetic minipigs; assay: Blood glucose levels in STZ-induced diabetic minipigs (CGMS); format: in vivo, Guangxi Bama minipigs; conditions: cream, 29 U kg^−1
Protocol: Guangxi Bama minipigs (aged 6 months; weight, 35–40 kg) were infused with STZ in freshly prepared disodium citrate buffer (75 mg ml^−1, pH 4.5) at a 150 mg per kg dose within 10 min and then maintained for recovery. The glucose levels were monitored using CGMS[15] (Dexcom G4 Platinum Continuous Glucose Monitor System, Dexcom). A BGL that is constantly higher than 250 mg dl^−1 indicates the successful establishment of the insulin-deficient diabetic minipig model.
The cream was topically applied onto the minipig abdominal skin at an insulin-equivalent dose of 40 mg or 10 mg (n = 3 for each group). The area with the cream was wrapped with plastic film. The BGLs of minipigs were continuously monitored using the CGMS. The diabetic minipigs were subjected to a fasting period of 12 h during the experimental procedures.

HaCat spheroids = assay: Penetration in 3D-cultured multilayer HaCat spheroids (with or without endocytosis/exocytosis inhibitors); format: cell-based, human; conditions: FITC-eq 1 μg ml^−1, 12 h
Protocol: Multilayer cell spheroids were prepared using the hanging-drop method. […] The cell suspensions (25 μl) were dropped onto the lids of the cell culture plate to form uniform droplets, and 20 ml PBS was added to the plate to keep the droplets moist. The cells were incubated for 72 h and formed dense spheroids, which were transferred to an agarose-coated (1% (w/v) in PBS) 96-well plate with one spheroid per well and incubated for another 72 h to mature. […] The spheroids were washed with PBS and imaged using CLSM by z-stack tomoscan at 20 μm intervals from the bottom to the middle of the spheroids. The integration of FITC fluorescence density and linescan analysis were performed using Image J.
The HaCat spheroids were imaged and analysed as described above.
Spheroids were pre-treated with the indicated inhibitors for 4 h, followed by incubation with
The images are representative of n = 3 independent
experiments. b, Line-scan analysis of FITC fluorescence along a randomly selected line (yellow
(1 picture or pasted object on this page, not shown here)

[6] = tested on: phosphorylated IRβ/IGF1Rβ; assay: Western blotting for insulin signalling, pIR/IR in skeletal muscle; format: in vivo, mouse; conditions: STZ-diabetic mice, 1 h after s.c. 5 U/kg, western blot, individual mice, n = 3
Protocol: (§1) The mice were euthanized, and their skeletal muscle tissues were collected at 1 h after subcutaneous injection or 4 h after topical administration. Muscle samples were weighed and lysed in radioimmunoprecipitation buffer (Sigma-Aldrich) containing protease and phosphatase inhibitors (Thermo Fisher Scientific) and incubated on ice for 30 min. The lysates were centrifuged at 20,000g for 20 min at 4 °C and quantified using the BCA protein assay. […] The membranes were blocked in Tris-buffered saline with 0.5% Tween-20 (TBST) and 5% BSA for 1 h, followed by overnight incubation at 4 °C with primary antibodies against phosphorylated IRβ/IGF1Rβ (1:1,000), phosphorylated AKT-Thr308 (1:1,000) or GAPDH (1:5,000). After washing three times with TBST, the membranes were incubated with horseradish-peroxidase-conjugated secondary antibodies (HRP-labelled goat anti-rabbit IgG (H+L) or HRP-labelled Goat Anti-Mouse IgG (H+L)) at a dilution of 1:1,000 at room temperature for 1 h. Signal detection was performed using Immobilon Forte chemiluminescence substrate on the ChemiScope 3600 Mini Imaging System (Clinx Science Instruments). […]
(§2) control. The blots are representative of n = 3 independent experiments . b, Quantification of pIR and pAKT levels. […]

[7] = tested on: phosphorylated AKT-Thr308; assay: Western blotting for insulin signalling, pAKT/AKT in skeletal muscle; format: in vivo, mouse; conditions: STZ-diabetic mice, 1 h after s.c. 5 U/kg, individual mice, n = 3
Protocol: as §1, §2

| Compound | Effect on BGLs, topical [3] | Area under the IPGTT blood glucose curve ([4]; replicate 1) | Area under the IPGTT blood glucose curve ([4]; replicate 2) | Area under the IPGTT blood glucose curve ([4]; replicate 3) | Area under the IPGTT blood glucose curve ([4]; replicate 4) | Area under the IPGTT blood glucose curve ([4]; replicate 5) | BGL after intraperitoneal glucose administration (IPGTT) [4] | Effect of topical treatment on minipig BGLs [5] | Fluorescence of HaCat spheroids (CLSM) (HaCat spheroids) | other results |
| --- | --- | --- | --- | --- | --- | --- | --- | --- | --- | --- |
| CCN1/C(=C/C=C/C=C/C2=[N+](CCCCCC(=O)O)c3ccc(S(=O)(=O)O)cc3C2(C)C)C(C)(C)c2cc(S(=O)(=O)[O-])ccc21 [free Cy5] | – | – | – | – | – | – | – | – | – | Transdermal permeability of free label [1]: no detectable transdermal permeability |
| OP-conjugated insulin (insulin conjugated to poly[2-(N-oxide-N,N-dimethylamino)ethyl methacrylate]) | – | – | – | – | – | – | – | – | – | koff [2]: 0.0053 s⁻¹; kon [2]: 204000 M⁻¹ s⁻¹ |
| PEG–I: PEGylated insulin, PEG molecular mass of 5 kDa, used as a control | negligible effect on BGLs | 63110 | 52617 | 56133 | 51381 | 44798 | around 600 mg dl^−1 | almost no obvious changes in minipig BGLs | – | – |
| PEG–I^FITC: FITC-labelled PEG–I | – | – | – | – | – | – | – | – | only weak fluorescence | – |
| insulin: Human recombinant insulin (29 U mg^−1, I8830, Solarbio) [reference compound] | negligible effect on BGLs | 55359 | 62309 | 59228 | 59472 | 58535 | around 600 mg dl^−1 | almost no obvious changes in minipig BGLs | – | BGL after rebound within 4 h ([3]; s.c. 5 U kg^−1): around 400 mg dl^−1; BGL reached within 1 h ([3]; s.c. 5 U kg^−1, from around 400): ~100 mg/dL; PIR/IR [6]: 0.1659 and 0.2361 and 0.221; pAKT/AKT [7]: 0.4051 and 0.6287 and 0.4302 |
| insulin^FITC: FITC-labelled insulin | – | – | – | – | – | – | – | – | only weak fluorescence | – |
